Values quoted from earlier work, collected in US10006071B2, “Methods to control secretion of metabolic byproducts in algae to enhance recovery of said byproducts” (Institute for Systems Biology, priority 2010, dated 2018).
Read-outs that look alike come from different tables or passages of the source. Residues, ends and D or L forms follow the SMILES beside them. *: point of attachment. Cbz = O=C(OCc1ccccc1)*; CH2F = FC*

Tests used:
Metacaspase [1] = tested on: Metacaspase
metacaspase [2] = tested on: metacaspase

Compound | inhibition of caspase-3 (caspase-3) | inhibition of caspase-8 (Caspase-8) | inhibition of caspase-1 (Caspase-1) | inhibition of caspase-9 (Caspase-9) | inhibition of caspase-6 (Caspase-6) | inhibition of metacaspase (Metacaspase [1]) | effect on apoptosis (apoptosis) | also measured
CC(=O)N[C@@H](CC(=O)O)C(=O)N[C@@H](CCC(=O)O)C(=O)N[C@H](C(=O)N[C@H](C=O)CC(=O)O)C(C)C [AcDEVD-CHO] | – | – | – | – | – | inhibited | – | inhibition of caspase-3 (caspase-3; Chlorella saccharophila): inhibit
O=C(O)CN(CCN(CC(=O)O)CC(=O)O)CCN(CC(=O)O)CC(=O)O [DTPA, diethylene triamine pentaacetic acid] | – | – | – | – | – | – | permits apoptosis to occur | –
c1ccc(CN(CCN(Cc2ccccn2)Cc2ccccn2)Cc2ccccn2)nc1 [TPEN, N,N,N′,N′-tetrakis(2-pyridylmethyl)ethylenediamine] | – | – | – | – | – | – | permits apoptosis to occur | –
COC(=O)CC[C@H](NC(=O)[C@H](CC(=O)OC)NC(=O)OCc1ccccc1)C(=O)N[C@H](C(=O)N[C@@H](CC(=O)OC)C(=O)CF)C(C)C [Z-DEVD-FMK] | – | – | – | – | – | inhibited | – | inhibition of metacaspase (metacaspase [2]): inhibits
COC(=O)C[C@H](NC(=O)[C@H](C)NC(=O)[C@@H](NC(=O)OCc1ccccc1)C(C)C)C(=O)CF [zVAD-fmk] (Cbz-Val-Ala-Asp(OMe)-CH2F) | – | – | – | – | – | inhibited | – | –

Second part, led by results:

inhibition of caspase-3 (caspase-3) | inhibition of caspase-8 (Caspase-8) | inhibition of caspase-1 (Caspase-1) | inhibition of caspase-9 (Caspase-9) | inhibition of caspase-6 (Caspase-6) | Compound | inhibition of metacaspase (Metacaspase [1]) | effect on apoptosis (apoptosis) | also measured
inhibit | inhibited | inhibited | inhibited | inhibited | CC(=O)N[C@H](C(=O)N[C@@H](C)C(=O)N[C@@H](CC(=O)O)C(=O)CF)C(C)C [Ac-VAD-FMK] (HELM PEPTIDE1{[ac].V.A.D.[FC[*:1]]}$$$$V2.0) | – | – | –
inhibit | inhibited | inhibited | inhibited | inhibited | CC(=O)N[C@@H](Cc1ccc(O)cc1)C(=O)N[C@@H](CCC(=O)O)C(=O)N[C@H](C(=O)N[C@@H](CC(=O)O)C(=O)CCl)C(C)C [Ac-YEVD-CMK] (HELM PEPTIDE1{[ac].Y.E.V.D.[ClC[*:1]]}$$$$V2.0) | – | – | –
inhibit | inhibited | inhibited | inhibited | inhibited | COC(=O)CC(NC(=O)OC(C)(C)C)C(=O)CF [Boc D-FMK] | – | – | –
potent inhibitor | – | – | – | – | [Zn+2] [Zn^+2] | – | inhibit apoptosis | –
